“And” between values parts separate entries of the source, which are not always exact repeats. Equal values may be shown once.
What was measured:
Rat [1] = test: concentration in plasma after dosing; conditions: dosed: Phenolphthalein, 25 mg/kg, iv, Male, F344
Rat [2] = test: concentration in plasma after dosing; conditions: dosed: Phenolphthalein, 25 mg/kg, iv, Female, F344
Rat [3] = test: concentration in plasma after dosing; conditions: dosed: Phenolphthalein, 25 mg/kg, iv, Male, F344; remark: listed apart in the source
Rat [4] = test: concentration in plasma after dosing; conditions: dosed: Phenolphthalein, 25 mg/kg, iv, Female, F344; remark: listed apart in the source
Rat [5] = test: concentration in plasma after dosing; conditions: dosed: Phenolphthalein, 25 mg/kg, iv, Male, F344; remark: listed apart in the source
Rat [6] = test: concentration in plasma after dosing; conditions: dosed: Phenolphthalein, 25 mg/kg, iv, Female, F344; remark: listed apart in the source
Rat [7] = test: concentration in plasma after dosing; conditions: 12 h; dosed: Phenolphthalein; 25 mg/kg; iv; Female; F344
Rat [8] = test: concentration in plasma after dosing; conditions: dosed: Phenolphthalein, 25 mg/kg, iv, Female, F344; remark: listed apart in the source
Rat [9] = test: concentration in plasma after dosing; conditions: dosed: Phenolphthalein, 25 mg/kg, iv, Female, F344; remark: listed apart in the source
Rat [10] = test: concentration in plasma after dosing; conditions: dosed: Phenolphthalein, 25 mg/kg, iv, Female, F344; remark: listed apart in the source
Rat [11] = test: concentration in plasma after dosing; conditions: dosed: Phenolphthalein, 25 mg/kg, iv, F344
Rat [12] = test: concentration in plasma after dosing; conditions: dosed: Phenolphthalein, 25 mg/kg, iv, Male, F344; remark: listed apart in the source
Rat [13] = test: concentration in plasma after dosing; conditions: dosed: Phenolphthalein, 25 mg/kg, iv, Male, F344; remark: listed apart in the source
Rat [14] = test: concentration in plasma after dosing; conditions: dosed: Phenolphthalein, 25 mg/kg, iv, Female, F344; remark: listed apart in the source
Rat [15] = test: concentration in plasma after dosing; conditions: 16 h; dosed: Phenolphthalein; 25 mg/kg; iv; Male; F344
Rat [16] = test: concentration in plasma after dosing; conditions: dosed: Phenolphthalein, 25 mg/kg, iv, Male, F344; remark: listed apart in the source
Rat [17] = test: concentration in plasma after dosing; conditions: dosed: Phenolphthalein, 25 mg/kg, iv, Female, F344; remark: listed apart in the source
Rat [18] = test: concentration in plasma after dosing; conditions: 16 h; dosed: Phenolphthalein; 25 mg/kg; iv; Male; F344; remark: listed apart in the source
Rat [19] = test: concentration in plasma after dosing; conditions: dosed: Phenolphthalein, 25 mg/kg, iv, Male, F344; remark: listed apart in the source
Rat [20] = test: concentration in plasma after dosing; conditions: dosed: Phenolphthalein, 25 mg/kg, iv, Male, F344; remark: listed apart in the source
Rat [21] = test: concentration in plasma after dosing; conditions: 16 h; dosed: Phenolphthalein; 25 mg/kg; iv; Female; F344
Rat [22] = test: concentration in plasma after dosing; conditions: dosed: Phenolphthalein, 25 mg/kg, iv, Female, F344; remark: listed apart in the source
Rat [23] = test: concentration in plasma after dosing; conditions: 16 h; dosed: Phenolphthalein; 25 mg/kg; iv; Female; F344; remark: listed apart in the source
Rat [24] = test: concentration in plasma after dosing; conditions: dosed: Phenolphthalein, 25 mg/kg, iv, Female, F344; remark: listed apart in the source
Rat [25] = test: concentration in plasma after dosing; conditions: dosed: Phenolphthalein, 25 mg/kg, iv, Male, F344; remark: listed apart in the source
Rat [26] = test: concentration in plasma after dosing; conditions: dosed: Phenolphthalein, 25 mg/kg, iv, Female, F344; remark: listed apart in the source
Rat [27] = test: concentration in plasma after dosing; conditions: dosed: Phenolphthalein, 25 mg/kg, iv, Female, F344; remark: listed apart in the source
Rat [28] = test: concentration in plasma after dosing; conditions: dosed: Phenolphthalein, 25 mg/kg, iv, Female, F344; remark: listed apart in the source
Rat [29] = test: concentration in plasma after dosing; conditions: dosed: Phenolphthalein, 25 mg/kg, iv, Male, F344; remark: listed apart in the source
Rat [30] = test: concentration in plasma after dosing; conditions: dosed: Phenolphthalein, 25 mg/kg, iv, Male, F344; remark: listed apart in the source
Rat [31] = test: concentration in plasma after dosing; conditions: dosed: Phenolphthalein, 25 mg/kg, iv, Male, F344; remark: listed apart in the source
Rat [32] = test: concentration in plasma after dosing; conditions: dosed: Phenolphthalein, 25 mg/kg, iv, Male, F344; remark: listed apart in the source
rat [33] = test: amount in expired air after dosing (umol); conditions: dosed: methanol, 100 mg/kg, iv, male, CDF(F344)/CrlBR
rat [34] = test: concentration in blood after dosing; conditions: dosed: furan, inhalation, duration: 4 hr, male, Fischer-344

## O=C1OC(c2ccc(O)cc2)(c2ccc(O[C@@H]3O[C@H](C(=O)O)[C@@H](O)[C@H](O)[C@H]3O)cc2)c2ccccc21 (stereo not given in full) [Phenolphthalein Glucuronide]
Rat [1]; 5 h
  concentration in plasma: 8040 ng/mL
Rat [1]; 10 h
  concentration in plasma: 11300 ng/mL
Rat [2]; 5 min
  concentration in plasma: 3250 ng/mL
Rat [2]; 24 h
  concentration in plasma: 5140 ng/mL
Rat [3]; 4 h
  concentration in plasma: 23300 ng/mL
Rat [3]; 7 h
  concentration in plasma: 13100 ng/mL
Rat [4]; 3 h
  concentration in plasma: 39000 ng/mL
Rat [4]; 12 h
  concentration in plasma: 18000 ng/mL
Rat [5]; 4 h
  concentration in plasma: 8240 ng/mL
Rat [5]; 7 h
  concentration in plasma: 14400 ng/mL
Rat [6]; 5 min
  concentration in plasma: 69000 ng/mL
Rat [6]; 24 h
  concentration in plasma: 14700 ng/mL
Rat [7]
  concentration in plasma: 14800 ng/mL
Rat [8]; 2 h
  concentration in plasma: 16300 ng/mL
Rat [8]; 8 h
  concentration in plasma: 22700 ng/mL
Rat [9]; 1 h
  concentration in plasma: 22300 ng/mL
Rat [9]; 6 h
  concentration in plasma: 8560 ng/mL
Rat [10]; 2.5 min
  concentration in plasma: 15100 ng/mL
Rat [10]; 20 h
  concentration in plasma: 9500 ng/mL
Rat [11]; 2.5 min, Female
  concentration in plasma: 26600 ng/mL
Rat [11]; 2.5 min, Male
  concentration in plasma: 4740 ng/mL
Rat [11]; 5 min, Female
  concentration in plasma: 49000 ng/mL
Rat [11]; 5 min, Male
  concentration in plasma: 22300 ng/mL
Rat [11]; 1 h, Female
  concentration in plasma: 6220 ng/mL
Rat [11]; 1 h, Male
  concentration in plasma: 13200 ng/mL
Rat [11]; 2 h, Female
  concentration in plasma: 22800 ng/mL
Rat [11]; 2 h, Male
  concentration in plasma: 1490 ng/mL
Rat [11]; 3 h, Female
  concentration in plasma: 47900 ng/mL
Rat [11]; 3 h, Male
  concentration in plasma: 7190 ng/mL
Rat [11]; 4 h, Female
  concentration in plasma: 50600 ng/mL
Rat [11]; 4 h, Male
  concentration in plasma: 4000 ng/mL
Rat [11]; 5 h, Female
  concentration in plasma: 17900 ng/mL
Rat [11]; 5 h, Male
  concentration in plasma: 2270 ng/mL
Rat [11]; 6 h, Female
  concentration in plasma: 18700 ng/mL
Rat [11]; 6 h, Male
  concentration in plasma: 11800 ng/mL
Rat [11]; 7 h, Female
  concentration in plasma: 35300 ng/mL
Rat [11]; 7 h, Male
  concentration in plasma: 4350 ng/mL
Rat [11]; 8 h, Female
  concentration in plasma: 16900 ng/mL
Rat [11]; 8 h, Male
  concentration in plasma: 3650 ng/mL
Rat [11]; 10 h, Female
  concentration in plasma: 11900 ng/mL
Rat [11]; 10 h, Male
  concentration in plasma: 5440 ng/mL
Rat [11]; 12 h, Female
  concentration in plasma: 24900 ng/mL
Rat [11]; 12 h, Male
  concentration in plasma: 8240 ng/mL
Rat [11]; 16 h, Female
  concentration in plasma: 8190 ng/mL
Rat [11]; 16 h, Male
  concentration in plasma: 9210 ng/mL
Rat [11]; 20 h, Female
  concentration in plasma: 16200 ng/mL
Rat [11]; 20 h, Male
  concentration in plasma: 8080 ng/mL
Rat [11]; 24 h, Female
  concentration in plasma: 9270 ng/mL
Rat [11]; 24 h, Male
  concentration in plasma: 6210 ng/mL
Rat [12]; 5 h
  concentration in plasma: 10900 ng/mL
Rat [12]; 10 h
  concentration in plasma: 10700 ng/mL
Rat [13]; 2 h
  concentration in plasma: 7950 ng/mL
Rat [13]; 8 h
  concentration in plasma: 9110 ng/mL
Rat [14]; 1 h
  concentration in plasma: 9080 ng/mL
Rat [14]; 6 h
  concentration in plasma: 15200 ng/mL
Rat [15]
  concentration in plasma: 7180 ng/mL
Rat [16]; 2.5 min
  concentration in plasma: 2320 ng/mL
Rat [16]; 20 h
  concentration in plasma: 8550 ng/mL
Rat [17]; 2 h
  concentration in plasma: 14600 ng/mL
Rat [17]; 8 h
  concentration in plasma: 17000 ng/mL
Rat [18]
  concentration in plasma: 37500 ng/mL
Rat [19]; 2 h
  concentration in plasma: 22600 ng/mL
Rat [19]; 8 h
  concentration in plasma: 18600 ng/mL
Rat [20]; 1 h
  concentration in plasma: 18700 ng/mL
Rat [20]; 6 h
  concentration in plasma: 10700 ng/mL
Rat [21]
  concentration in plasma: 8150 ng/mL
Rat [22]; 5 h
  concentration in plasma: 16500 ng/mL
Rat [22]; 10 h
  concentration in plasma: 11300 ng/mL
Rat [23]
  concentration in plasma: 21500 ng/mL
Rat [24]; 5 h
  concentration in plasma: 16900 ng/mL
Rat [24]; 10 h
  concentration in plasma: 13300 ng/mL
Rat [25]; 5 min
  concentration in plasma: 21100 ng/mL
Rat [25]; 24 h
  concentration in plasma: 5330 ng/mL
Rat [26]; 2.5 min
  concentration in plasma: 10400 ng/mL
Rat [26]; 20 h
  concentration in plasma: 8670 ng/mL
Rat [27]; 4 h
  concentration in plasma: 14000 ng/mL
Rat [27]; 7 h
  concentration in plasma: 13700 ng/mL
Rat [28]; 4 h
  concentration in plasma: 18400 ng/mL
Rat [28]; 7 h
  concentration in plasma: 19500 ng/mL
Rat [29]; 3 h
  concentration in plasma: 32000 ng/mL
Rat [29]; 12 h
  concentration in plasma: 10500 ng/mL
Rat [30]; 5 min
  concentration in plasma: 23700 ng/mL
Rat [30]; 24 h
  concentration in plasma: 6100 ng/mL
Rat [31]; 3 h
  concentration in plasma: 6590 ng/mL
Rat [31]; 12 h
  concentration in plasma: 17300 ng/mL
Rat [32]; 1 h
  concentration in plasma: 19000 ng/mL
Rat [32]; 6 h
  concentration in plasma: 35900 ng/mL

## O=C1OC(c2ccc(O)cc2)(c2ccc(O[C@@H]3O[C@H](C(=O)O)[C@@H](O)[C@H](O)[C@H]3O)cc2)c2ccccc21 (stereo not given in full) [Phenolphthalein glucuronide]
Rat [11]; 2.5 min, Male
  concentration in plasma: 6980 ng/mL
Rat [11]; 20 h, Male
  concentration in plasma: 8900 ng/mL

## O=C=O [carbon dioxide]
Rat [33]; 0.2199 h
  amount in expired air: 1.76
Rat [33]; 0.5362 h
  amount in expired air: 6.28
Rat [33]; 0.9412 h
  amount in expired air: 13.1
Rat [33]; 1.448 h
  amount in expired air: 25.8
Rat [33]; 1.93 h
  amount in expired air: 37.7
Rat [33]; 2.933 h
  amount in expired air: 81.5
Rat [33]; 4.445 h
  amount in expired air: 151
Rat [33]; 5.995 h
  amount in expired air: 221
Rat [33]; 8.01 h
  amount in expired air: 278
Rat [33]; 10.01 h
  amount in expired air: 322
Rat [33]; 12.03 h
  amount in expired air: 335
Rat [33]; 15.08 h
  amount in expired air: 344

## c1ccoc1 [furan]
Rat [34]; 130 s, 107 ppm
  concentration in blood: 387 ng/mL and 348 ng/mL
Rat [34]; 131 s, 107 ppm
  concentration in blood: 309 ng/mL
Rat [34]; 132 s, 208 ppm
  concentration in blood: 945 ng/mL
Rat [34]; 133 s, 208 ppm
  concentration in blood: 772 ng/mL and 654 ng/mL
Rat [34]; 0.1053 h, 52 ppm
  concentration in blood: 111 ng/mL
Rat [34]; 0.1054 h, 52 ppm
  concentration in blood: 93 ng/mL
Rat [34]; 0.1745 h, 107 ppm
  concentration in blood: 142 ng/mL
Rat [34]; 0.3024 h, 107 ppm
  concentration in blood: 101 ng/mL
Rat [34]; 0.3025 h, 107 ppm
  concentration in blood: 88.4 ng/mL
Rat [34]; 0.5398 h, 208 ppm
  concentration in blood: 98.4 ng/mL
Rat [34]; 0.54 h, 208 ppm
  concentration in blood: 82.3 ng/mL
Rat [34]; 0.7855 h, 208 ppm
  concentration in blood: 47 ng/mL
Rat [34]; 0.7856 h, 208 ppm
  concentration in blood: 41.2 ng/mL
Rat [34]; 0.7857 h, 208 ppm
  concentration in blood: 35.7 ng/mL

Reference: EPA's CvTdb concentration-time database
